Test results: patent US11166916B2, “Carbon quantum dots and preparation process and use thereof” (CHANG GUNG UNIVERSITY, priority 2019, dated 2021)
Converted amounts (≈) assume the structure as drawn.

Key:
Experiment in all cases: Antimicrobial test, MIC90 by spread plate count
[1] = system: Escherichia coli; format: cell-based; conditions: BCRC10316, Escherichia coli BCRC 10316
Procedure: (§1) A respective one of Staphylococcus aureus, Escherichia coli, Pseudomonas aeruginosa, Salmonella enteritidis, and MRSA was inoculated into a LB broth, followed by incubation in a thermostatic shaking incubator (37° C.) until an OD600 value of 1.0 was reached. The respective resultant culture was centrifuged at 3,000 g for 10 minutes, and the cell pellet thus obtained was washed with a 5 mM phosphate buffer (pH 7.4), followed by suspending with a LB broth. The resultant bacterial broths of Staphylococcus aureus, Escherichia coli, Pseudomonas aeruginosa, Salmonella enteritidis, and MRSA (each of such five bacterial suspensions contained a bacterial concentration of 1×10^4 CFU/mL) were used for the following experiment.
(§2) A suitable amount of a respective one of CQD^DA, CQD^SPD, CQD^DA-SPM, CQD^DA-SPD, CQD^DA-PUT, CQD^DA-SPM-1, and CQD^DA-SPM-2 was freeze-dried, and the respective resultant freeze-dried powder was dissolved in deionized water, followed by dilution with a 5 mM phosphate buffer (pH 7.4), so as to obtain seven CQD solutions having different concentrations (0.05-50 μg/mL).
(§3) A respective one of the five CQD solutions (i.e., CQD^DA, CQD^SPD, CQD^DA-SPM, CQD^DA-SPD, and CQD^DA-PUT solutions), the DA solutions, and the SPM solutions and a respective one of the bacterial broths of Staphylococcus aureus and Escherichia coli were mixed in a 5 mM phosphate buffer (pH 7.4), and the respective resultant mixture was incubated in a thermostatic shaking incubator (37° C.) for 1 hour, followed by addition of a suitable amount of LB broth. After incubation with shaking for 18 hours, the respective resultant culture was subjected to serial dilution with a LB broth, so as to obtain seven dilutions (10^1 to 10^7).
(§4) Thereafter, 1 μL of the respective dilution was subjected to spread plate procedure. The number of surviving bacteria was counted, and the minimum inhibitory concentration to inhibit the growth of 90% of a bacterial isolate (MIC90) was determined according to the technique well known to and routinely used by one skilled in the art.
(§5) A respective one of the four CQD solutions (i.e., CQD^DA, CQD^DA-SPM, CQD^DA-SPM-1, and CQD^DA-SPM-2 solutions) and the SPM solutions and a respective one of bacterial broths of Staphylococcus aureus, Escherichia coli, Pseudomonas aeruginosa, Salmonella enteritidis, and MRSA were mixed in a 5 mM phosphate buffer (pH 7.4), and the respective resultant mixture was subjected to antimicrobial activity analysis according to the method described in section E of this example.

[2] = system: Pseudomonas aeruginosa; format: cell-based; conditions: ATCC10145; Table 4; Pseudomonas aeruginosa ATCC 10145
Procedure: as §1, §2, §3, §4, §5

[3] = system: Salmonella enteritidis; format: cell-based; conditions: Salmonella enterica, ATCC 13076 / ENTERITIDIS; Table 4; Salmonella enteritidis ATCC 13076
Procedure: as §1, §2, §3, §4, §5

[4] = system: Staphylococcus aureus; format: cell-based; conditions: ATCC9144, Staphylococcus aureus ATCC 9144
Procedure: as §1, §2, §3, §4, §5

[5] = system: MRSA; format: cell-based, Methicillin-resistant Staphylococcus aureus; conditions: Staphylococcus aureus, ATCC 33592 / MRSA; Table 4; MRSA ATCC 33592
Procedure: as §1
as §2, with “μg/mL). […]” for “μg/mL).”

[6] = Table 3, 1 h in 5 mM phosphate buffer pH 7.4, then 18 h in LB broth

`NCCCNCCCCNCCCN` [SPM, spermine] was tested, and the MIC90 [1, 6] was 2350 µg/mL (≈ 11.6 mM), the MIC90 ([1]; Table 4) was 2350 µg/mL (≈ 11.6 mM) and the MIC90 [2] was 2450 µg/mL (≈ 12.1 mM). The MIC90 [3] was 2660 µg/mL (≈ 13.1 mM), the MIC90 [4, 6] was 658 µg/mL (≈ 3.25 mM) and the MIC90 ([4]; Table 4) was 658 µg/mL (≈ 3.25 mM). The MIC90 [5] was 1550 µg/mL (≈ 7.67 mM).
In the case of `NCCc1ccc(O)c(O)c1` [DA, dopamine], the MIC90 [1, 6] is reported as 512 µg/mL (≈ 3.34 mM) and the MIC90 [4, 6] is reported as 250 µg/mL (≈ 1.63 mM).
